In ChEMBL document CHEMBL1201862, “PubChem BioAssay data set” (2004):
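Each compound was tested at five concentrations against cells in 96-well plates for 48 hours. Here, GI50 denotes the concentration required for 50% inhibition of growth.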 Active and inactive are the calls of the source. Cut-off read from the data, not from the text of the source: active = GI50 up to about 1.1 µM and inactive = higher.

Columns and labels:
Assay in all cases: NCI anticancer screen, dose series, 48 h
[1] = tested on: A549
[2] = tested on: PC-3
[3] = tested on: K562
[4] = tested on: SF-268
[5] = tested on: 786-0
[6] = tested on: COLO 205
[7] = tested on: SF-295
[8] = tested on: T47D
[9] = tested on: NCI-H226
[10] = tested on: SK-MEL-28
[11] = tested on: HL-60
[12] = tested on: MDA-N
[13] = tested on: SW-620
[14] = tested on: NCI-H23
[15] = tested on: HOP-62
[16] = tested on: TK-10
[17] = tested on: RPMI-8226
[18] = tested on: CAKI-1
[19] = tested on: IGROV-1
[20] = tested on: NCI-H522

SMILES	GI50 [1]	GI50 [2]	GI50 [3]	GI50 [4]	GI50 [5]	GI50 [6]	GI50 [7]	GI50 [8]	GI50 [9]	GI50 [10]	GI50 [11]	GI50 [12]	GI50 [13]	GI50 [14]	GI50 [15]	GI50 [16]	GI50 [17]	GI50 [18]	GI50 [19]	GI50 [20]
Cc1ccc2ccccc2c1CSc1nc(N)nc2c1ncn2CC(C)C	10.9 µM (inactive)	13.9 µM (inactive)	6.41 µM (inactive)	45.8 µM (inactive)	21.4 µM (inactive)	6.4 µM (inactive)	5.86 µM (inactive)	5.05 µM (inactive)	7.82 µM (inactive)	55.8 µM (inactive)	16.2 µM (inactive)	15.7 µM (inactive)	24.7 µM (inactive)	24.4 µM (inactive)	28.9 µM (inactive)	29.6 µM (inactive)	5.65 µM (inactive)	17 µM (inactive)	51.2 µM (inactive)	8.71 µM (inactive)
CC(C)c1ccccc1[S+]([O-])c1ccccc1C(C)(C)O (stereo not given)	44.2 µM (inactive)	> 100 µM (inactive)	60.4 µM (inactive)	> 100 µM (inactive)	> 100 µM (inactive)	> 100 µM (inactive)	21.1 µM (inactive)	> 100 µM (inactive)	21.3 µM (inactive)	> 100 µM (inactive)	82.6 µM (inactive)	57.8 µM (inactive)	> 100 µM (inactive)	> 100 µM (inactive)	22.5 µM (inactive)	> 100 µM (inactive)	42.6 µM (inactive)	> 100 µM (inactive)	> 100 µM (inactive)	96.8 µM (inactive)
C[C@@H]1CC[C@@]2(NC1)O[C@H]1C[C@H]3[C@@H]4CC[C@H]5C[C@@H](O)CC[C@]5(C)[C@H]4CC[C@]3(C)[C@H]1[C@@H]2C	> 100 µM (inactive)	82.4 µM (inactive)	63.1 µM (inactive)	> 100 µM (inactive)	31.6 µM (inactive)	57.1 µM (inactive)	35.5 µM (inactive)	> 100 µM (inactive)	> 100 µM (inactive)	> 100 µM (inactive)	21.6 µM (inactive)	36 µM (inactive)	88.9 µM (inactive)	77.3 µM (inactive)	64.4 µM (inactive)	35.3 µM (inactive)	31.2 µM (inactive)	> 100 µM (inactive)	90.2 µM (inactive)	> 100 µM (inactive)
CC(=O)OC[C@@H]1[C@H]2CC[C@]3(C)[C@@H](OC(C)=O)CC[C@H]3[C@@H]2CC[C@H]1C1(C)SCCS1	> 25 µM (inactive)	> 25 µM (inactive)	> 25 µM (inactive)	> 25 µM (inactive)	> 25 µM (inactive)	> 25 µM (inactive)	> 25 µM (inactive)	> 25 µM (inactive)	> 25 µM (inactive)	> 25 µM (inactive)	> 25 µM (inactive)	> 25 µM (inactive)	> 25 µM (inactive)	> 25 µM (inactive)	> 25 µM (inactive)	> 25 µM (inactive)	> 25 µM (inactive)	> 25 µM (inactive)	> 25 µM (inactive)	> 25 µM (inactive)
COc1ccc(/C=C(\C(=C/c2ccc(OC)cc2)[N+](=O)[O-])[N+](=O)[O-])cc1	22.7 µM (inactive)	5.85 µM (inactive)	3.92 µM (inactive)	4.09 µM (inactive)	2.04 µM (inactive)	3.68 µM (inactive)	14.3 µM (inactive)	8.83 µM (inactive)	3.97 µM (inactive)	2.31 µM (inactive)	0.261 µM (active)	3.14 µM (inactive)	2.52 µM (inactive)	4.46 µM (inactive)	5.47 µM (inactive)	5.71 µM (inactive)	3.15 µM (inactive)	3.18 µM (inactive)	4.55 µM (inactive)	2.58 µM (inactive)
